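Method: 48-hour compound exposure of cells in 96-well plates, five concentrations, linear interpolation of endpoints. GI50 is the concentration that inhibits growth by half.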 Activity calls are given as the source filed them. No stated cut-off is given here; in the data, active = GI50 up to about 1.1 µM and inactive = higher.
Experiments:
Assay in all cases: NCI tumour cell line growth inhibition, 48 h
[1] = system: DMS-273
[2] = system: SNB-78
[3] = system: DLD-1
[4] = system: M19-MEL
[5] = system: LXFL 529
[6] = system: HOP-18
[7] = system: DMS-114
[8] = system: KM-20L2
[9] = system: RXF 631

Row | Structure (SMILES) | GI50 [1] | GI50 [2] | GI50 [3] | GI50 [4] | GI50 [5] | GI50 [6] | GI50 [7] | GI50 [8] | GI50 [9]
1 | Oc1cc(-c2ccc3c(c2)OCO3)nc2cc3c(cc12)OCO3 | 21.3 µM (inactive) | 43 µM (inactive) | 55.8 µM (inactive) | 20.5 µM (inactive) | 68.4 µM (inactive) | 72.6 µM (inactive) | – | – | –
2 | NC1=C(Cl)C(=O)c2ccccc2C1=O | 5.82 µM (inactive) | 25.4 µM (inactive) | 8.75 µM (inactive) | 0.518 µM (active) | 12.6 µM (inactive) | 9.66 µM (inactive) | 3.89 µM (inactive) | 9.12 µM (inactive) | –
3 | COc1ccc(C(O)/C(=C/n2ccnc2)c2ccccc2)cc1OC (centres undefined) | > 100 µM (inactive) | – | > 100 µM (inactive) | > 100 µM (inactive) | – | > 100 µM (inactive) | > 100 µM (inactive) | > 100 µM (inactive) | > 100 µM (inactive)
4 | C=CCNC(=O)NCCCCC(NC(C)=O)C(=O)NCc1ccccc1 (centres undefined) | > 100 µM (inactive) | – | – | > 100 µM (inactive) | > 100 µM (inactive) | > 100 µM (inactive) | > 100 µM (inactive) | > 100 µM (inactive) | –
5 | Cc1ccc(C(=O)N2CCN(C(=O)c3ccc(C)cc3)c3ccccc32)cc1 | 2.05 µM (inactive) | 6.97 µM (inactive) | 4.23 µM (inactive) | 4.39 µM (inactive) | 6.5 µM (inactive) | 17.7 µM (inactive) | 3.78 µM (inactive) | 3.28 µM (inactive) | –
6 | CCC1(O)C(=O)OCc2c1cc1n(c2=O)Cc2c-1nc1ccccc1c2OC (centres undefined) | < 0.01 µM (active) | 2.13 µM (inactive) | 0.488 µM (active) | 0.0438 µM (active) | 0.434 µM (active) | 0.372 µM (active) | < 0.0117 µM (active) | 0.0512 µM (active) | –
7 | COc1ccc2c(c1)Oc1cc(O)ccc1[C@@H]2c1ccccc1C(=O)NC(C)c1ccccc1 (some centres undefined) | 14.3 µM (inactive) | 13.3 µM (inactive) | 13.9 µM (inactive) | 15.9 µM (inactive) | 14.2 µM (inactive) | – | 12.7 µM (inactive) | 14.9 µM (inactive) | –
8 | Cc1ccc(C(=O)NCCN(C)C)c2nc3ccccc3cc12 | 0.467 µM (active) | 13.2 µM (inactive) | 1.32 µM (inactive) | 2.31 µM (inactive) | 2.15 µM (inactive) | 1.92 µM (inactive) | 2.78 µM (inactive) | 0.661 µM (active) | 0.817 µM (active)
9 | CCN(CC)CC(C(=O)Nc1c(C)cccc1C)/C(C)=N\NC(=O)c1ccncc1 (centres undefined) | > 100 µM (inactive) | > 100 µM (inactive) | > 100 µM (inactive) | > 100 µM (inactive) | > 100 µM (inactive) | > 100 µM (inactive) | > 100 µM (inactive) | – | > 100 µM (inactive)
10 | Cc1ccc(NC(=O)CC/C(CC(=O)C(C)(C)C)=N\NC(=O)C[n+]2ccccc2)cc1C | > 100 µM (inactive) | > 100 µM (inactive) | – | > 100 µM (inactive) | > 100 µM (inactive) | > 100 µM (inactive) | 73.6 µM (inactive) | > 100 µM (inactive) | –
11 | O=C(O)CNS(=O)(=O)c1ccc(NC(=O)CI)cc1 | 17.7 µM (inactive) | – | 26.9 µM (inactive) | 32.4 µM (inactive) | 6.97 µM (inactive) | 34.3 µM (inactive) | – | 23.1 µM (inactive) | 16.4 µM (inactive)
12 | COP(=O)(OC)C(NC(=O)C(F)(F)F)(c1ccccc1)C(F)(F)F (centres undefined) | > 100 µM (inactive) | – | > 100 µM (inactive) | > 100 µM (inactive) | – | > 100 µM (inactive) | > 100 µM (inactive) | > 100 µM (inactive) | –
13 | O=[N+]([O-])c1cnn(C2=CNc3ccccc3N=C2)c1 | > 100 µM (inactive) | > 100 µM (inactive) | > 100 µM (inactive) | > 100 µM (inactive) | – | > 100 µM (inactive) | – | > 100 µM (inactive) | > 100 µM (inactive)
14 | O=C1CC[C@@H](S(=O)(=O)c2ccccc2)[C@@H](/C=C/c2ccccc2)O1 | – | – | – | > 100 µM (inactive) | > 100 µM (inactive) | > 100 µM (inactive) | > 100 µM (inactive) | > 100 µM (inactive) | –
15 | CC(C)(C)CC(C)(C)NCC(O)COc1ccc(C(C)(C)c2ccc(OCC(O)CNC(C)(C)CC(C)(C)C)cc2)cc1 (centres undefined) | 1.04 µM (active) | 1.95 µM (inactive) | 0.832 µM (active) | 1.53 µM (inactive) | 0.357 µM (active) | – | 1.76 µM (inactive) | 1.47 µM (inactive) | –
16 | COC(=O)C1=C(C[S+]([O-])c2ccc([N+](=O)[O-])cc2[N+](=O)[O-])C2C=CC1C2 (centres undefined) | 20.2 µM (inactive) | 48.3 µM (inactive) | 19.1 µM (inactive) | 20.1 µM (inactive) | 22.2 µM (inactive) | 29.4 µM (inactive) | 23.4 µM (inactive) | 22 µM (inactive) | 17.8 µM (inactive)
17 | N#CC(C#N)=c1ccc(=C2NCC3CCCN23)cc1 (centres undefined) | > 100 µM (inactive) | > 100 µM (inactive) | – | > 100 µM (inactive) | > 100 µM (inactive) | > 100 µM (inactive) | > 100 µM (inactive) | > 100 µM (inactive) | –
18 | CC(=O)NC1=C(Nc2ccc(C)cc2)C(=O)c2ccccc2C1=O | 16.5 µM (inactive) | 44.9 µM (inactive) | 19.7 µM (inactive) | 8.43 µM (inactive) | 23.6 µM (inactive) | 12.2 µM (inactive) | 14.5 µM (inactive) | 24.1 µM (inactive) | –
19 | COC(=O)[C@@]12C3=NO[C@]1(C(=O)OC)C(O[Si](C)(C)C(C)(C)C)C1OC(C)(C)OC1[C@@H]2[C@@H](OCc1ccccc1)CC3 (some centres undefined) | 51.4 µM (inactive) | – | > 100 µM (inactive) | > 100 µM (inactive) | 46.3 µM (inactive) | > 100 µM (inactive) | 49.5 µM (inactive) | > 100 µM (inactive) | –
20 | CC(C)(O)C(O)COc1c2c(cc3oc(=O)ccc13)OCO2 (centres undefined) | > 100 µM (inactive) | – | > 100 µM (inactive) | > 100 µM (inactive) | > 100 µM (inactive) | > 100 µM (inactive) | > 100 µM (inactive) | > 100 µM (inactive) | –

Reference: ChEMBL document CHEMBL1201862, “PubChem BioAssay data set” (2004)
